Measured values taken from patent US6858589B2, “Methods of and compositions for potentiating the action of agents active on cell wall sites of the susceptible bacteria” (priority 1996, dated 2005).
Converted amounts (≈) assume the structure as drawn. Read-outs that look alike come from different tables or passages of the source.

Legend:
[1] = tested on: blood culture isolate of cMRSA; experiment: Kill kinetics and regrowth patterns of cMRSA exposed to gentamicin profiles and constant beta-lactam; assay type: cell-based, Staphylococcus aureus; conditions: for Outcome of exposure: each agent alone
Procedure: FIGS. 5a and 5b Kill kinetics and regrowth patterns of a clinical isolate of cMRSA.
The CMRSA isolate was cultured in the presence of gentamicin (Delta West, Bentleigh, Australia). An overnight culture of cMRSA in brain heart infusion broth (BHIB) (Oxoid, Bainstoke, England) was diluted to 10^7 CFU/ml in 0.1% peptone water (Oxoid, Bainstoke, England). A 1 ml sample of the 10^7 CFU/ml culture was added to the experimental culture broth, resulting in an initial density of 10^6 CFU/ml. In vitro concentration-time modeling of clinical plasma gentamicin concentration-time profiles assumed linear extrapolation of in vivo data as reported previously.^18 (Bastone et al Antimicrobial Agents and Chemotherapy 37(4): 914-917, 1993). […] Other profiles were constructed by linear extrapolation of these profiles and included 7 and 16 mg/l bolus and infusion profiles. Colony counts were performed at times 0, 0.5, 2.5, 4.5, 6.5, 8.5, 10.5, 24.5 and 48.5 hours for bolus profiles and times 0, 1, 3, 5, 7, 9, 11, 25 and 49 hours for infusion profiles.
In the experiments involving cephazolin the concentration was maintained at 4 mg/l in the BHIB for the entire 48.5 hours. For the experiments involving flucloxacillin the concentration of flucloxacillin was maintained at 2 mg/l for 48.5 hours. Colony counts were performed at times 0, 0,5, 2.5, 4.5, 6.5, 8.5, 10.5, 24.5 and 48.5 hours. […] These included cMRSA in a drug free broth, cMRSA exposed to a bolus profile of gentamicin with a target Cpeak 30 of 6 mg/l only, cMRSA exposed to […] of flucloxacillin only.
All experiments involved six replicates. Gentamicin concentrations were measured at times 0, 0.16, 0.33, 0.5, 2.5, 4.5, 6.5, 8.5, 10.5, 24.5 and 48.5 hours. Gentamicin assay concentrations were determined by fluorescence polarisation immunoassay (AxSYM, Abbot, Ill., U.S.A.) which has a threshold for detection of 0.3 mg/liter. […] (Gibaldi et al, pharmaceutics 2nd edn, 1982).
The blood culture cMRSA isolate was exposed to gentamicin in vitro simulating an in vivo bolus dosing regimen with varying 30 minute post dose concentrations of gentamicin. The same organism was then exposed to gentamicin in vitro simulating an in vivo bolus dosing regime with a 30 minute post dose concentration of 6 mg/l and constant concentration of 4 mg/l of cephazolin or 2 mg/l of flucloxacillin for 48 hours.

[2] = tested on: blood culture isolate of cMRSA; experiment: MIC and MBC for the cMRSA isolate; assay type: cell-based, Staphylococcus aureus; conditions: mecA positive
Procedure: The student test was used for statistical analysis with a significant level of 0.05, it was performed using the Sigma Stat 32 program (SPSS Inc 1992-1997).

E. coli NCTC 10418 = experiment: E. coli exposed to constant concentrations of cephazolin alone; assay type: cell-based, Escherichia coli
From the text: In comparative experiments described in the examples herein, a reference strain of Escherichi coli (E. coli NCTC 10418) was exposed to constant concentrations of cephazolin in the culture medium (see FIGS. 1A and IIA). As these concentrations were varied, the growth of the bacterial culture was changed. […] As concentrations in the medium were increased, there was a major decline in numbers and a delay in regrowth.
The organisms in the media were able to maintain their numbers in a reduced state even in the continuing presence of cephazolin. This outcome is due to the exclusion of cephalosporins by porin channels in the outer cell wall and to the action of cephalosporinase which keeps cephazolin levels at the site(s) of action below that required for full bactericidal effect.
The cephalosporin effect reached a maximum when E. coli growth was reduced to 10 colony forming units(cfu)/ml (see FIG. IIB).

[3] = tested on: antibiotic resistant strain of Pseudomonas aeruoginosa isolated from a clinical patient; experiment: MIC, antibiotic resistant clinical Pseudomonas strain; assay type: cell-based, Pseudomonas aeruginosa
[4] = tested on: Pseudomonas aeruoginosa, ATCC27853; experiment: Tobramycin concentration-time profile kill study, reference strain; assay type: cell-based, Pseudomonas aeruginosa; conditions: 8 mg/l at 1 hour, reducing until 8.5 hr, then fixed 0.8 mg/l for 16 hours
Procedure: (§1) The range of aminoglycoside antibiotics was extended to include tobramycin, the bacterial species type was extended from Enterobacteriaceae to Pseudomonacea, and the organism response range broadened to include an antibiotic resistant strain in Pseudomonas studies.
(§2) In contrast, the resistant clinical strain required a peak concentration of 18 mg/l combined with a maintained level of 1 mg/l.

[5] = tested on: Pseudomonas aeruoginosa, ATCC27853; experiment: MIC, Pseudomonas reference strain; assay type: cell-based, Pseudomonas aeruginosa
[6] = tested on: antibiotic resistant strain of Pseudomonas aeruoginosa isolated from a clinical patient; experiment: Tobramycin concentration-time profile kill study, resistant clinical strain; assay type: cell-based, Pseudomonas aeruginosa
Procedure: The time boundaries for maintained exposures with aminoglycoside may be 1.0-16 hours, while the required maintained concentrations will be a function of the resistance of the organism as determined by the minimum inhibitory concentration (MIC) of the pathogen isolated in culture and time-concentration requirements of the organism(s) being treated.
as §1, §2

[7] = 4 mg/l cephazolin alone throughout

SMILES: Cc1onc(-c2c(F)cccc2Cl)c1C(=O)N[C@@H]1C(=O)N2[C@@H]1SC(C)(C)[C@@H]2C(=O)O [flucloxacillin]
- Outcome of exposure [1]: complete kill or eradication was not achieved

SMILES: Cc1nnc(SCC2=C(C(=O)O)N3C(=O)[C@@H](NC(=O)Cn4cnnn4)[C@H]3SC2)s1 [cephazolin]
- Time at which early bactericidal effect was evident [1, 7]: ≤ 2.5 h
- Time at which regrowth was evident [1, 7]: 24.5 h
- Outcome of exposure [1]: complete kill or eradication was not achieved
- MBC [2]: 32 µg/mL (≈ 70.4 µM)
- MIC [2]: 32 µg/mL (≈ 70.4 µM)
- Outcome of exposure (E. coli NCTC 10418; cephalosporin alone, constant concentrations): not possible to produce a complete kill or eradication
- E. coli growth at maximum cephalosporin effect (E. coli NCTC 10418; constant concentrations of cephalosporin alone, up to 250 mg/l): 10 cfu/ml
- Growth of the culture (E. coli NCTC 10418; lowest concentration of cephazolin, 1.0 mg/l): delayed in relation to control
- Bacterial Count (E. coli NCTC 10418; maintained cephazolin 0.5 mg/L, 0 h): 5.88 ± 0.09 log 10 u/mL
- Bacterial Count (E. coli NCTC 10418; maintained cephazolin 0.5 mg/L, 2 h): 7.43 ± 0.28 log 10 u/mL
- Bacterial Count (E. coli NCTC 10418; maintained cephazolin 0.5 mg/L, 8 h): 8.67 ± 0.24 log 10 u/mL
- Bacterial Count (E. coli NCTC 10418; maintained cephazolin 0.5 mg/L, 24 h): 8.82 ± 0.06 log 10 u/mL
- Bacterial Count (E. coli NCTC 10418; maintained cephazolin 1.0 mg/L, 0 h): 5.83 ± 0.29 log 10 u/mL
- Bacterial Count (E. coli NCTC 10418; maintained cephazolin 1.0 mg/L, 2 h): 6.21 ± 0.76 log 10 u/mL
- Bacterial Count (E. coli NCTC 10418; maintained cephazolin 1.0 mg/L, 8 h): 8.59 ± 0.35 log 10 u/mL
- Bacterial Count (E. coli NCTC 10418; maintained cephazolin 1.0 mg/L, 24 h): 8.79 ± 0.05 log 10 u/mL
- Bacterial Count (E. coli NCTC 10418; maintained cephazolin 2.0 mg/L, 0 h): 5.88 ± 0.07 log 10 u/mL
- Bacterial Count (E. coli NCTC 10418; maintained cephazolin 2.0 mg/L, 2 h): 3.70 ± 0.32 log 10 u/mL
- Bacterial Count (E. coli NCTC 10418; maintained cephazolin 2.0 mg/L, 8 h): 4.98 ± 0.34 log 10 u/mL
- Bacterial Count (E. coli NCTC 10418; maintained cephazolin 2.0 mg/L, 24 h): 8.79 ± 0.05 log 10 u/mL
- Bacterial Count (E. coli NCTC 10418; maintained cephazolin 4.0 mg/L, 0 h): 5.88 ± 0.06 log 10 u/mL
- Bacterial Count (E. coli NCTC 10418; maintained cephazolin 4.0 mg/L, 2 h): 3.61 ± 0.22 log 10 u/mL
- Bacterial Count (E. coli NCTC 10418; maintained cephazolin 4.0 mg/L, 8 h): 4.38 ± 0.42 log 10 u/mL
- Bacterial Count (E. coli NCTC 10418; maintained cephazolin 4.0 mg/L, 24 h): 6.14 ± 0.93 log 10 u/mL
- Bacterial Count (E. coli NCTC 10418; maintained cephazolin 12.5 mg/L, 0 h): 5.85 ± 0.14 log 10 u/mL
- Bacterial Count (E. coli NCTC 10418; maintained cephazolin 12.5 mg/L, 2 h): 3.11 ± 0.26 log 10 u/mL
- Bacterial Count (E. coli NCTC 10418; maintained cephazolin 12.5 mg/L, 8 h): 2.18 ± 0.63 log 10 u/mL
- Bacterial Count (E. coli NCTC 10418; maintained cephazolin 12.5 mg/L, 24 h): 4.77 ± 1.89 log 10 u/mL
- Bacterial Count (E. coli NCTC 10418; maintained cephazolin 50 mg/L, 0 h): 5.93 ± 0.11 log 10 u/mL
- Bacterial Count (E. coli NCTC 10418; maintained cephazolin 50 mg/L, 2 h): 2.17 ± 0.39 log 10 u/mL
- Bacterial Count (E. coli NCTC 10418; maintained cephazolin 50 mg/L, 8 h): 1.55 ± 0.93 log 10 u/mL
- Bacterial Count (E. coli NCTC 10418; maintained cephazolin 50 mg/L, 24 h): 1.56 ± 1.14 log 10 u/mL
- Bacterial Count (E. coli NCTC 10418; maintained cephazolin 75 mg/L, 0 h): 5.82 ± 0.23 log 10 u/mL
- Bacterial Count (E. coli NCTC 10418; maintained cephazolin 75 mg/L, 2 h): 2.09 ± 0.29 log 10 u/mL
- Bacterial Count (E. coli NCTC 10418; maintained cephazolin 75 mg/L, 8 h): 1.11 ± 0.96 log 10 u/mL
- Bacterial Count (E. coli NCTC 10418; maintained cephazolin 75 mg/L, 24 h): 1.05 ± 1.23 log 10 u/mL
- Bacterial Count (E. coli NCTC 10418; maintained cephazolin 100 mg/L, 0 h): 5.85 ± 0.08 log 10 u/mL
- Bacterial Count (E. coli NCTC 10418; maintained cephazolin 100 mg/L, 2 h): 2.01 ± 0.26 log 10 u/mL
- Bacterial Count (E. coli NCTC 10418; maintained cephazolin 100 mg/L, 8 h): 0.86 ± 0.95 log 10 u/mL
- Bacterial Count (E. coli NCTC 10418; maintained cephazolin 100 mg/L, 24 h): 0.70 ± 0.78 log 10 u/mL
- Bacterial Count (E. coli NCTC 10418; maintained cephazolin 200 mg/L, 0 h): 5.86 ± 0.04 log 10 u/mL
- Bacterial Count (E. coli NCTC 10418; maintained cephazolin 200 mg/L, 2 h): 2.16 ± 0.24 log 10 u/mL
- Bacterial Count (E. coli NCTC 10418; maintained cephazolin 200 mg/L, 8 h): 0.78 ± 0.87 log 10 u/mL
- Bacterial Count (E. coli NCTC 10418; maintained cephazolin 200 mg/L, 24 h): 1.43 ± 0.74 log 10 u/mL
- Bacterial Count (E. coli NCTC 10418; maintained cephazolin 250 mg/L, 0 h): 5.81 ± 0.03 log 10 u/mL
- Bacterial Count (E. coli NCTC 10418; maintained cephazolin 250 mg/L, 2 h): 1.82 ± 0.44 log 10 u/mL
- Bacterial Count (E. coli NCTC 10418; maintained cephazolin 250 mg/L, 8 h): 1.22 ± 0.96 log 10 u/mL
- Bacterial Count (E. coli NCTC 10418; maintained cephazolin 250 mg/L, 24 h): 1.61 ± 0.86 log 10 u/mL

SMILES: COc1cccc(OC)c1C(=O)N[C@@H]1C(=O)N2[C@@H]1SC(C)(C)[C@@H]2C(=O)O [methicillin]
- MBC ([2]; Staphylococcus aureus, read-out: MBC): > 32 µg/mL
- MIC ([2]; Staphylococcus aureus, read-out: MIC): 32 µg/mL (≈ 84.1 µM)

SMILES: NC[C@H]1O[C@H](O[C@H]2[C@H](O)[C@@H](O[C@H]3O[C@H](CO)[C@@H](O)[C@H](N)[C@H]3O)[C@H](N)C[C@@H]2N)[C@H](N)C[C@@H]1O [tobramycin]
- MIC [3]: 2 to 4 µg/mL (≈ 4.28 to 8.56 µM)
- Outcome of tobramycin profile [4]: complete kill
- MIC [5]: 1 µg/mL (≈ 2.14 µM)
- Maintained level required ([6]; combined with 18 mg/l peak): 1 mg/L
- Peak concentration required ([6]; combined with maintained level): 18 mg/L
